Source: ChEMBL document CHEMBL1151241, “Sesquiterpenes and flavonol glycosides from Zingiber aromaticum and their CYP3A4 and CYP2D6 inhibitory activities” (J Nat Prod, 2004)

Target: Cytochrome P450 3A4 (Homo sapiens, UniProt P08684)
Assay: Inhibition of human CYP3A4 by radiometric assay
Assay type: ADME

Chain of Cytochrome P450 3A4 (P08684 whole entry): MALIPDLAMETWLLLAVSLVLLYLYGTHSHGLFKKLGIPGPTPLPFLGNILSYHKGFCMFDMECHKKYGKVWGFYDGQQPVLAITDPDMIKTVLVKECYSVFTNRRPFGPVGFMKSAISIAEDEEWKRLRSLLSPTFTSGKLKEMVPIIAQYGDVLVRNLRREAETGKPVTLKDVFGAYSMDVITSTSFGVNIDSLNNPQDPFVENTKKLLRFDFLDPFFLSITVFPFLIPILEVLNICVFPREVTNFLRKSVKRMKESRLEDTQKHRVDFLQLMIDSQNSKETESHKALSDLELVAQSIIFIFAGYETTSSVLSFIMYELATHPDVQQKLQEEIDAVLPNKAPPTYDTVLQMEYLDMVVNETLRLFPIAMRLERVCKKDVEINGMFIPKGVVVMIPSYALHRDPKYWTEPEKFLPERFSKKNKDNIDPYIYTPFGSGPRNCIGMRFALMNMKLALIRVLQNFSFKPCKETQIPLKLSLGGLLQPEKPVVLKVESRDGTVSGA

Row | Structure (SMILES) | IC50
1 | CC(=O)O[C@@H]1[C@@H](OC(C)=O)[C@@H](O)[C@H](Oc2c(-c3ccc(O)cc3)oc3cc(O)cc(O)c3c2=O)O[C@H]1C | 20.6 µM
2 | CC(=O)O[C@H]1[C@H](Oc2c(-c3ccc(O)cc3)oc3cc(O)cc(O)c3c2=O)O[C@@H](C)[C@H](O)[C@H]1O | 59 µM
3 | C/C1=C\CC(C)(C)/C=C/C(=O)/C(C)=C/[C@H](O)C1 | 35.5 µM
4 | CC(=O)O[C@@H]1[C@@H](O)[C@H](C)O[C@@H](Oc2c(-c3ccc(O)cc3)oc3cc(O)cc(O)c3c2=O)[C@@H]1OC(C)=O | 55.8 µM
5 | CC(=O)O[C@@H]1[C@@H](O)[C@H](C)O[C@@H](Oc2c(-c3ccc(O)cc3)oc3cc(O)cc(O)c3c2=O)[C@@H]1O | 98.3 µM
6 | CC(=O)O[C@@H]1[C@@H](O)[C@@H](OC(C)=O)[C@H](Oc2c(-c3ccc(O)cc3)oc3cc(O)cc(O)c3c2=O)O[C@H]1C | 31.6 µM
7 | C/C1=C\[C@H](O)C[C@@]2(C)O[C@@H]2CC(C)(C)/C=C/C1=O | 62.5 µM
8 | C/C1=C\[C@H](O)C[C@]2(C)O[C@@H]2CC(C)(C)/C=C/C1=O | 42.6 µM
9 | CC(=O)O[C@@H]1[C@@H](OC(C)=O)[C@H](C)O[C@@H](Oc2c(-c3ccc(O)cc3)oc3cc(O)cc(O)c3c2=O)[C@@H]1OC(C)=O | 14.4 µM
10 | COc1ccc(-c2oc3cc(O)cc(O)c3c(=O)c2OC)cc1 [ERMANIN] | 21.8 µM
11 | COc1c(-c2ccc(O)cc2)oc2cc(O)cc(O)c2c1=O [ISOKAEMPFERIDE] | 36.2 µM
12 | CCCCC/C=C/C(=O)CCc1ccc(O)c(OC)c1 [SHOGAOL] | 77.7 µM
13 | C/C1=C\CC[C@@]2(C)O[C@@H]2CC(C)(C)/C=C/C1=O [ZERUMBONE EPOXIDE] | 48.4 µM
14 | C/C1=C\CC(C)(C)/C=C/C(=O)/C(C)=C/CC1 [ZERUMBONE] | 21.8 µM

Target: Cytochrome P450 2D6 (Homo sapiens, UniProt P10635)
Assay: Inhibition of human CYP2D6 by radiometric assay
Assay type: ADME

Chain of Cytochrome P450 2D6 (P10635 whole entry): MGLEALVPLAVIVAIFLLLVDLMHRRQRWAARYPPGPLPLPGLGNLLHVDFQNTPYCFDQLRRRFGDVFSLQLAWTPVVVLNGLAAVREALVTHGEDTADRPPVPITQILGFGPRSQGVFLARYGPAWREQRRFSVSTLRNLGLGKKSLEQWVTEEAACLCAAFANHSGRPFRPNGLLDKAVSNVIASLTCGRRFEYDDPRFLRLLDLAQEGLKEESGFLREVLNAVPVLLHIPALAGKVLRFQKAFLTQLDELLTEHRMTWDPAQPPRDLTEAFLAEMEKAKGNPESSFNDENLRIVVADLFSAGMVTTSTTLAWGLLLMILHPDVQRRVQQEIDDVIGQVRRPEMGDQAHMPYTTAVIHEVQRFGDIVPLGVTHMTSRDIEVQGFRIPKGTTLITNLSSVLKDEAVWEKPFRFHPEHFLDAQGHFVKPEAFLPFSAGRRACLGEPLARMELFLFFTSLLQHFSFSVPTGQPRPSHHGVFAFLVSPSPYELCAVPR

Row | Structure (SMILES) | IC50
15 | CC(=O)O[C@@H]1[C@@H](OC(C)=O)[C@@H](O)[C@H](Oc2c(-c3ccc(O)cc3)oc3cc(O)cc(O)c3c2=O)O[C@H]1C | 50.5 µM
16 | CC(=O)O[C@H]1[C@H](Oc2c(-c3ccc(O)cc3)oc3cc(O)cc(O)c3c2=O)O[C@@H](C)[C@H](O)[C@H]1O | > 100 µM
17 | C/C1=C\CC(C)(C)/C=C/C(=O)/C(C)=C/[C@H](O)C1 | > 100 µM
18 | CC(=O)O[C@@H]1[C@@H](O)[C@H](C)O[C@@H](Oc2c(-c3ccc(O)cc3)oc3cc(O)cc(O)c3c2=O)[C@@H]1OC(C)=O | > 100 µM
19 | CC(=O)O[C@@H]1[C@@H](O)[C@H](C)O[C@@H](Oc2c(-c3ccc(O)cc3)oc3cc(O)cc(O)c3c2=O)[C@@H]1O | > 100 µM
20 | CC(=O)O[C@@H]1[C@@H](O)[C@@H](OC(C)=O)[C@H](Oc2c(-c3ccc(O)cc3)oc3cc(O)cc(O)c3c2=O)O[C@H]1C | > 100 µM
21 | C/C1=C\[C@H](O)C[C@@]2(C)O[C@@H]2CC(C)(C)/C=C/C1=O | > 100 µM
22 | C/C1=C\[C@H](O)C[C@]2(C)O[C@@H]2CC(C)(C)/C=C/C1=O | > 100 µM
23 | CC(=O)O[C@@H]1[C@@H](OC(C)=O)[C@H](C)O[C@@H](Oc2c(-c3ccc(O)cc3)oc3cc(O)cc(O)c3c2=O)[C@@H]1OC(C)=O | 43.3 µM
24 | COc1ccc(-c2oc3cc(O)cc(O)c3c(=O)c2OC)cc1 [ERMANIN] | 45.5 µM
25 | COc1c(-c2ccc(O)cc2)oc2cc(O)cc(O)c2c1=O [ISOKAEMPFERIDE] | 4.63 µM
26 | CCCCC/C=C/C(=O)CCc1ccc(O)c(OC)c1 [SHOGAOL] | > 100 µM
27 | C/C1=C\CC[C@@]2(C)O[C@@H]2CC(C)(C)/C=C/C1=O [ZERUMBONE EPOXIDE] | > 100 µM
28 | C/C1=C\CC(C)(C)/C=C/C(=O)/C(C)=C/CC1 [ZERUMBONE] | > 100 µM
